PubChem BioAssay (NCI)
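Cultured in 96-well plates, cells were exposed to test compound for 48 hours across five concentrations. GI50 marks 50% less growth. TGI denotes the concentration required for complete inhibition of growth.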

Experiments:
Assay in all cases: growth of human tumour cells (NCI), 48 h
786-0 renal = system: 786-0 renal
A498 renal = system: A498 renal
A549 NSCLC = system: A549 NSCLC
ACHN renal = system: ACHN renal
BT-549 breast = system: BT-549 breast
CAKI-1 renal = system: CAKI-1 renal
CCRF-CEM leukemia = system: CCRF-CEM leukemia
COLO 205 colon = system: COLO 205 colon
DU-145 prostate = system: DU-145 prostate
EKVX NSCLC = system: EKVX NSCLC
HCC-2998 colon = system: HCC-2998 colon
HCT-116 colon = system: HCT-116 colon
HCT-15 colon = system: HCT-15 colon
HL-60(TB) leukemia = system: HL-60(TB) leukemia
HOP-62 NSCLC = system: HOP-62 NSCLC
HOP-92 NSCLC = system: HOP-92 NSCLC
HS 578T breast = system: HS 578T breast
HT29 colon = system: HT29 colon
IGROV1 ovarian = system: IGROV1 ovarian
K-562 leukemia = system: K-562 leukemia
KM12 colon = system: KM12 colon
LOX IMVI melanoma = system: LOX IMVI melanoma
M14 melanoma = system: M14 melanoma
MALME-3M melanoma = system: MALME-3M melanoma
MCF7 breast = system: MCF7 breast
MDA-MB-231 breast = system: MDA-MB-231 breast
MDA-MB-435 = system: MDA-MB-435
MOLT-4 leukemia = system: MOLT-4 leukemia
NCI-H226 lung = system: NCI-H226 lung
NCI-H23 lung = system: NCI-H23 lung
NCI-H460 lung = system: NCI-H460 lung
NCI-H522 lung = system: NCI-H522 lung
NCI/ADR-RES ovarian = system: NCI/ADR-RES ovarian
OVCAR-3 ovarian = system: OVCAR-3 ovarian
OVCAR-5 ovarian = system: OVCAR-5 ovarian
OVCAR-8 ovarian = system: OVCAR-8 ovarian
PC-3 prostate = system: PC-3 prostate
RPMI-8226 leukemia = system: RPMI-8226 leukemia
RXF 393 renal = system: RXF 393 renal
SF-268 CNS = system: SF-268 CNS
SF-295 CNS = system: SF-295 CNS
SF-539 CNS = system: SF-539 CNS
SK-MEL-2 melanoma = system: SK-MEL-2 melanoma
SK-MEL-28 melanoma = system: SK-MEL-28 melanoma
SK-MEL-5 melanoma = system: SK-MEL-5 melanoma
SK-OV-3 ovarian = system: SK-OV-3 ovarian
SN12C renal = system: SN12C renal
SNB-19 CNS = system: SNB-19 CNS
SNB-75 CNS = system: SNB-75 CNS
SR leukemia = system: SR leukemia
SW-620 colon = system: SW-620 colon
T-47D breast = system: T-47D breast
TK-10 renal = system: TK-10 renal
U251 CNS = system: U251 CNS
UACC-257 melanoma = system: UACC-257 melanoma
UACC-62 melanoma = system: UACC-62 melanoma
UO-31 renal = system: UO-31 renal

For CC(C)(C)c1ccc(CC(=O)Nc2sc3c(c2C(N)=O)CCC(=O)C3)cc1, the GI50 (786-0 renal) was 1390 nM, the TGI (786-0 renal) was 11800 nM and the GI50 (A498 renal) was 2050 nM. For the same compound, the TGI (A498 renal) was 6970 nM, the GI50 (A549 NSCLC) was 1990 nM and the TGI (A549 NSCLC) was 6920 nM. For the same compound, the GI50 (ACHN renal) was 374 nM, the TGI (ACHN renal) was 1310 nM and the GI50 (BT-549 breast) was 480 nM. The TGI (BT-549 breast) was 2400 nM, the GI50 (CAKI-1 renal) was 395 nM and the TGI (CAKI-1 renal) was 3010 nM. For the same compound, the GI50 (CCRF-CEM leukemia) was 137 nM, the TGI (CCRF-CEM leukemia) was 3620 nM and the GI50 (COLO 205 colon) was 1330 nM. For the same compound, the TGI (COLO 205 colon) was 3020 nM, the GI50 (DU-145 prostate) was 3170 nM and the TGI (DU-145 prostate) was 14000 nM. The GI50 (EKVX NSCLC) was 549 nM, the TGI (EKVX NSCLC) was 3540 nM and the GI50 (HCC-2998 colon) was 1490 nM. For the same compound, the TGI (HCC-2998 colon) was 3880 nM, the GI50 (HCT-116 colon) was 260 nM and the TGI (HCT-116 colon) was 1290 nM. It also gave a GI50 (HCT-15 colon) of 295 nM, a TGI (HCT-15 colon) of 2110 nM and a GI50 (HL-60(TB) leukemia) of 423 nM. For the same compound, the TGI (HL-60(TB) leukemia) was 3110 nM, the GI50 (HOP-62 NSCLC) was 2690 nM and the TGI (HOP-62 NSCLC) was 13200 nM. For the same compound, the GI50 (HOP-92 NSCLC) was 464 nM, the TGI (HOP-92 NSCLC) was 1850 nM and the GI50 (HS 578T breast) was 1980 nM. It also gave a TGI (HS 578T breast) of 10900 nM, a GI50 (HT29 colon) of 871 nM and a TGI (HT29 colon) of 8430 nM. The GI50 (IGROV1 ovarian) was 532 nM, the TGI (IGROV1 ovarian) was 3100 nM and the GI50 (K-562 leukemia) was 233 nM. For the same compound, the TGI (K-562 leukemia) was 4940 nM, the GI50 (KM12 colon) was 880 nM and the TGI (KM12 colon) was 3160 nM. For the same compound, the GI50 (LOX IMVI melanoma) was 460 nM, the TGI (LOX IMVI melanoma) was 3410 nM and the GI50 (M14 melanoma) was 435 nM. It also gave a TGI (M14 melanoma) of 2690 nM, a GI50 (MALME-3M melanoma) of 692 nM and a TGI (MALME-3M melanoma) of 2350 nM. For the same compound, the GI50 (MCF7 breast) was 433 nM, the TGI (MCF7 breast) was 6660 nM and the GI50 (MDA-MB-231 breast) was 1170 nM. For the same compound, the TGI (MDA-MB-231 breast) was 3290 nM, the GI50 (MDA-MB-435) was 1300 nM and the TGI (MDA-MB-435) was 4210 nM. It also gave a GI50 (MOLT-4 leukemia) of 569 nM, a TGI (MOLT-4 leukemia) of 8210 nM and a GI50 (NCI-H226 lung) of 1700 nM. It also gave a TGI (NCI-H226 lung) of 4140 nM, a GI50 (NCI-H23 lung) of 340 nM and a TGI (NCI-H23 lung) of 3590 nM. For the same compound, the GI50 (NCI-H460 lung) was 1030 nM, the TGI (NCI-H460 lung) was 8060 nM and the GI50 (NCI-H522 lung) was 283 nM. It also gave a TGI (NCI-H522 lung) of 2590 nM, a GI50 (NCI/ADR-RES ovarian) of 621 nM and a TGI (NCI/ADR-RES ovarian) of 5110 nM. The GI50 (OVCAR-3 ovarian) was 541 nM, the TGI (OVCAR-3 ovarian) was 2090 nM and the GI50 (OVCAR-5 ovarian) was 901 nM. For the same compound, the TGI (OVCAR-5 ovarian) was 2990 nM, the GI50 (OVCAR-8 ovarian) was 458 nM and the TGI (OVCAR-8 ovarian) was 24700 nM. For the same compound, the GI50 (PC-3 prostate) was 207 nM, the TGI (PC-3 prostate) was 1900 nM and the GI50 (RPMI-8226 leukemia) was 221 nM. The TGI (RPMI-8226 leukemia) was 691 nM, the GI50 (RXF 393 renal) was 594 nM and the TGI (RXF 393 renal) was 1980 nM. The GI50 (SF-268 CNS) was 2820 nM, the TGI (SF-268 CNS) was 12700 nM and the GI50 (SF-295 CNS) was 1180 nM. The TGI (SF-295 CNS) was 3180 nM, the GI50 (SF-539 CNS) was 421 nM and the TGI (SF-539 CNS) was 1670 nM. It also gave a GI50 (SK-MEL-2 melanoma) of 2290 nM, a TGI (SK-MEL-2 melanoma) of 6640 nM and a GI50 (SK-MEL-28 melanoma) of 1380 nM. It also gave a TGI (SK-MEL-28 melanoma) of 3160 nM, a GI50 (SK-MEL-5 melanoma) of 1230 nM and a TGI (SK-MEL-5 melanoma) of 2580 nM. For the same compound, the GI50 (SK-OV-3 ovarian) was 2770 nM, the TGI (SK-OV-3 ovarian) was 8040 nM and the GI50 (SN12C renal) was 1040 nM. For the same compound, the TGI (SN12C renal) was 3910 nM, the GI50 (SNB-19 CNS) was 1090 nM and the TGI (SNB-19 CNS) was 4690 nM. For the same compound, the GI50 (SNB-75 CNS) was 1300 nM, the TGI (SNB-75 CNS) was 4280 nM and the GI50 (SR leukemia) was 132 nM. For the same compound, the GI50 (SW-620 colon) was 386 nM, the TGI (SW-620 colon) was 2160 nM and the GI50 (T-47D breast) was 368 nM. The TGI (T-47D breast) was 2670 nM, the GI50 (TK-10 renal) was 473 nM and the TGI (TK-10 renal) was 8480 nM. The GI50 (U251 CNS) was 389 nM, the TGI (U251 CNS) was 2250 nM and the GI50 (UACC-257 melanoma) was 2040 nM. It also gave a TGI (UACC-257 melanoma) of 5860 nM, a GI50 (UACC-62 melanoma) of 540 nM and a TGI (UACC-62 melanoma) of 2070 nM. The GI50 (UO-31 renal) was 430 nM and the TGI (UO-31 renal) was 1680 nM.
